Laboratory results published in PubChem BioAssay AID1963869 (Molecular Pharmacology Branch, DTP, NCI, 2024).

System: KRAS patient-derived spheroids with HUVEC/MSC, viability
Experiment: Anticancer human tumor 323965-272-R-J2-PDC patient-derived pancreatic carcinoma cell line growth inhibition [KRAS2]
Conditions: for IC50: curve of first compound; for viability, T/C: stronger effect = lower value
In short: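 KRAS-mutant tumor cells were grown as spheroids with HUVEC endothelial cells and human MSCs as stroma. Targeted agents were tested alone and with KRAS pathway inhibitors. Doses started at or near clinical Cmax, or 10 microM, descending half-log.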

[1] = second compound 0.1 µM, first compound 0.0316 µM
[2] = second compound 0.1 µM, first compound 0.1 µM
[3] = second compound 0.1 µM, first compound 0.316 µM
[4] = second compound 0.1 µM, first compound 1 µM
[5] = second compound 0.1 µM, first compound 3.16 µM
[6] = second compound 0.1 µM, first compound 10 µM
[7] = second compound 0.316 µM, first compound 0.0316 µM
[8] = second compound 0.316 µM, first compound 0.1 µM
[9] = second compound 0.316 µM, first compound 0.316 µM
[10] = second compound 0.316 µM, first compound 1 µM
[11] = second compound 0.316 µM, first compound 3.16 µM
[12] = second compound 0.316 µM, first compound 10 µM
[13] = second compound 1 µM, first compound 0.0316 µM
[14] = second compound 1 µM, first compound 0.1 µM
[15] = second compound 1 µM, first compound 0.316 µM
[16] = second compound 1 µM, first compound 1 µM
[17] = second compound 1 µM, first compound 3.16 µM
[18] = second compound 1 µM, first compound 10 µM
[19] = second compound 3.16 µM, first compound 0.0316 µM
[20] = second compound 3.16 µM, first compound 0.1 µM
[21] = second compound 3.16 µM, first compound 0.316 µM
[22] = second compound 3.16 µM, first compound 1 µM
[23] = second compound 3.16 µM, first compound 3.16 µM
[24] = second compound 3.16 µM, first compound 10 µM
[25] = second compound 10 µM, first compound 0.0316 µM
[26] = second compound 10 µM, first compound 0.1 µM
[27] = second compound 10 µM, first compound 0.316 µM
[28] = second compound 10 µM, first compound 1 µM
[29] = second compound 10 µM, first compound 3.16 µM
[30] = second compound 10 µM, first compound 10 µM
[31] = second compound 0.1 µM, first compound 0.01 µM
[32] = second compound 0.316 µM, first compound 0.01 µM
[33] = second compound 1 µM, first compound 0.01 µM
[34] = second compound 3.16 µM, first compound 0.01 µM
[35] = second compound 10 µM, first compound 0.01 µM
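Note: spheroids exposed to agents for 7 days.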
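Throughout, for viability, T/C: 100% = DMSO vehicle control viability.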

Row | SMILES | IC50 (second compound 0.1 µM) [nM] | IC50 (second compound 0.316 µM) [nM] | IC50 (second compound 1 µM) [nM] | IC50 (second compound 3.16 µM) [nM] | IC50 (second compound 10 µM) [nM] | viability, T/C [1] [%] | viability, T/C [2] [%] | viability, T/C [3] [%] | viability, T/C [4] [%] | viability, T/C [5] [%] | viability, T/C [7] [%] | viability, T/C [8] [%] | viability, T/C [9] [%] | viability, T/C [10] [%] | viability, T/C [13] [%] | viability, T/C [14] [%] | viability, T/C [19] [%] | viability, T/C [20] [%] | viability, T/C [25] [%] | viability, T/C [26] [%] | further results
1 | CC1OCC2(CCN(c3cnc(Sc4ccnc(N)c4Cl)c(N)n3)CC2)C1N (stereo not given) + CNCc1ccccc1-c1csc(C(C)Nc2nc(C)nc3cc(OC)c(OC)cc23)c1 | 404 | 202 | 548 | 351 | < 31.6 | 77.4 | 65.6 | 53.4 | 38.6 | 28.7 | 82.1 | 55.4 | 44.1 | 41.6 | 101 | 71.9 | 83.5 | 65.8 | 0.33 | 0.17 | viability, T/C [6]: 17.8%; viability, T/C [11]: 27.9%; viability, T/C [12]: 25.9%; viability, T/C [15]: 60.5%; viability, T/C [16]: 40.7%; viability, T/C [17]: 35.1%; viability, T/C [18]: 33.4%; viability, T/C [21]: 51.3%; viability, T/C [22]: 40.8%; viability, T/C [23]: 27%; viability, T/C [24]: 25.5%; viability, T/C [27]: 0.15%; viability, T/C [28]: 0.14%; viability, T/C [29]: 0.13%; viability, T/C [30]: 0.18%
2 | CC(=O)OC12COC1CC(O)C1(C)C(=O)C(O)C3=C(C)C(OC(=O)C(O)C(NC(=O)OC(C)(C)C)c4ccccc4)CC(O)(C(OC(=O)c4ccccc4)C21)C3(C)C (stereo not given) + COc1cc2nc(C)nc(NC(C)c3cc(N)cc(C(F)(F)F)c3)c2cc1OC1CCOC1 | < 10 | < 10 | < 10 | < 10 | < 10 | 28.6 | 23.8 | 23.2 | 28.2 | 25.2 | 24.5 | 21.6 | 22.4 | 24.5 | 28 | 27.6 | 20.1 | 18.8 | 21.2 | 17.8 | viability, T/C [31]: 28.6%; viability, T/C [32]: 24.2%; viability, T/C [11]: 25.2%; viability, T/C [33]: 21.6%; viability, T/C [15]: 27.2%; viability, T/C [16]: 30.4%; viability, T/C [17]: 35.3%; viability, T/C [34]: 21.4%; viability, T/C [21]: 20.4%; viability, T/C [22]: 20.1%; viability, T/C [23]: 24.3%; viability, T/C [35]: 23.1%; viability, T/C [27]: 17.1%; viability, T/C [28]: 21.2%; viability, T/C [29]: 15.8%
3 | CN(C)C/C=C/C(=O)Nc1cc2c(Nc3ccc(F)c(Cl)c3)ncnc2cc1O[C@H]1CCOC1 + COc1cc2nc(C)nc(NC(C)c3cc(N)cc(C(F)(F)F)c3)c2cc1OC1CCOC1 | > 100 | > 100 | > 100 | 25 | 14.8 | 62.1 | 60.7 |  |  |  | 51.2 | 54.5 |  |  | 61.3 | 69.1 | 47.8 | 49.2 | 49.1 | 48.4 | viability, T/C (second compound 0.1 µM, first compound 0.000316 µM): 84.3%; viability, T/C (second compound 0.1 µM, first compound 0.001 µM): 65.2%; viability, T/C (second compound 0.1 µM, first compound 0.00316 µM): 65.8%; viability, T/C [31]: 60.5%; viability, T/C (second compound 0.316 µM, first compound 0.000316 µM): 67.7%; viability, T/C (second compound 0.316 µM, first compound 0.001 µM): 65.6%; viability, T/C (second compound 0.316 µM, first compound 0.00316 µM): 53.6%; viability, T/C [32]: 46.5%; viability, T/C (second compound 1 µM, first compound 0.000316 µM): 59.5%; viability, T/C (second compound 1 µM, first compound 0.001 µM): 94.3%; viability, T/C (second compound 1 µM, first compound 0.00316 µM): 74.7%; viability, T/C [33]: 73%; viability, T/C (second compound 3.16 µM, first compound 0.000316 µM): 74.3%; viability, T/C (second compound 3.16 µM, first compound 0.001 µM): 71.7%; viability, T/C (second compound 3.16 µM, first compound 0.00316 µM): 59.5%; viability, T/C [34]: 54.2%; viability, T/C (second compound 10 µM, first compound 0.000316 µM): 92.1%; viability, T/C (second compound 10 µM, first compound 0.001 µM): 75.8%; viability, T/C (second compound 10 µM, first compound 0.00316 µM): 59.3%; viability, T/C [35]: 49.4%
4 | O=C(c1cc(Cc2n[nH]c(=O)c3ccccc23)ccc1F)N1CCN(C(=O)C2CC2)CC1 + COc1cc2nc(C)nc(NC(C)c3cc(N)cc(C(F)(F)F)c3)c2cc1OC1CCOC1 | > 10000 | > 10000 | > 10000 | > 10000 | > 10000 | 101 | 107 | 94.1 | 98.8 | 88 | 90.3 | 81 | 83.5 | 84.9 | 102 | 103 | 81.5 | 82.2 | 76.7 | 76.3 | viability, T/C [6]: 59.1%; viability, T/C [11]: 78.9%; viability, T/C [12]: 57.7%; viability, T/C [15]: 95.5%; viability, T/C [16]: 99%; viability, T/C [17]: 94.6%; viability, T/C [18]: 50.2%; viability, T/C [21]: 76.1%; viability, T/C [22]: 83.2%; viability, T/C [23]: 76.9%; viability, T/C [24]: 52.5%; viability, T/C [27]: 78.8%; viability, T/C [28]: 75.8%; viability, T/C [29]: 75.9%; viability, T/C [30]: 51.2%
